Results on 29 compounds are retold here after patent US11407721B2, “CIS-morpholinone and other compounds as MDM2 inhibitors for the treatment of cancer” (AMGEN INC., priority 2013, dated 2022).

This assay addresses interaction between HDM2 and p53 (GST-hMDM2 (1-188) / biotinylated-p53 (1-83)) (Homo sapiens (Human), UniProt Q00987). The assay is described as follows: HTRF2 Assay (improved HTRF assay). The following applies: read-out: HTRF2 IC50. In kind it is binding. For orientation: Time-resolved FRET reads energy transfer from a long-lived donor to a nearby acceptor.
Where [1] appears, read: 0.2 nM GST-hMDM2 (1-188), 0.5 nM biotinylated-p53 (1-83), 100 mM KF.

Read-outs that look alike come from different tables or passages of the source.

The term IC50 denotes the concentration that gives 50% inhibition.

interaction between HDM2 and p53 (GST-hMDM2 (1-188) / biotinylated-p53 (1-83)), sequence (Q00987 1-188): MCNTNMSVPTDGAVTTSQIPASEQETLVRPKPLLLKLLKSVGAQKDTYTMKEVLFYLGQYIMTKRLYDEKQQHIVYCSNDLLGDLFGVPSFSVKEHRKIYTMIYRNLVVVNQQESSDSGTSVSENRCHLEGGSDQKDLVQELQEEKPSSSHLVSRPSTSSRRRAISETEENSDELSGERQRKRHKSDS

For `CCC[C@H](CCC(=O)O)N1C(=O)[C@H](Cc2ccc(F)cc2)O[C@@H](c2ccc(Cl)cc2)[C@H]1c1ccc(Cl)cc1` (mixture of isomers) [Example 31, (R)-4-((2S,3R,6S)-2,3-Bis(4-chlorophenyl)-6-(4-fluorobenzyl)-5-oxomorpholino)heptanoic acid and (S)-4-((2R,3S,6R)-2,3-bis(4-chlorophenyl)-6-(4-fluorobenzyl)-5-oxomorpholino)heptanoic acid], the IC50 came to 1330 nM.

Consider `CS(=O)(=O)c1ccc(C[C@@H]2O[C@@H](c3ccc(Cl)cc3)[C@@H](c3ccc(Cl)cc3)N(c3cccnc3)C2=O)c(F)c1` (mixture of isomers) [Example 63, (2S,5R,6S)-5,6-Bis(4-chlorophenyl)-2-(2-fluoro-4-(methylsulfonyl)benzyl)-4-(pyridin-3-yl)morpholin-3-one and (2R,5S,6R)-5,6-bis(4-chlorophenyl)-2-(2-fluoro-4-(methylsulfonyl)benzyl)-4-(pyridin-3-yl)morpholin-3-one], for which the half-inhibitory concentration (IC50) is 20000 nM.

Consider `O=C1[C@H](Cc2ccc(F)cc2)O[C@@H](c2ccc(Cl)cc2)[C@@H](c2ccc(Cl)cc2)N1c1ccnc(Cl)c1` (racemic) [Example 58, (2S,5R,6S)-5,6-Bis(4-chlorophenyl)-4-(2-chloropyridin-4-yl)-2-(4-fluorobenzyl)morpholin-3-one and (2R,5S,6R)-5,6-bis(4-chlorophenyl)-4-(2-chloropyridin-4-yl)-2-(4-fluorobenzyl)morpholin-3-one], for which the IC50 is 5000 nM.

For the compound `CS(=O)(=O)c1ccc(C[C@@H]2O[C@@H](c3ccc(Cl)cc3)[C@@H](c3ccc(Cl)cc3)N(c3cccnc3)C2=O)cc1` (racemic) [Example 62, (2S,5R,6S)-5,6-Bis(4-chlorophenyl)-2-(4-(methylsulfonyl)benzyl)-4-(pyridin-3-yl)morpholin-3-one and (2R,5S,6R)-5,6-bis(4-chlorophenyl)-2-(4-(methylsulfonyl)benzyl)-4-(pyridin-3-yl)morpholin-3-one], the IC50 turned out to be 15800 nM.

Take `CCC[C@H](C(=O)NCCCC(=O)O)N1C(=O)[C@H](Cc2ccc(S(C)(=O)=O)cc2)O[C@@H](c2ccc(Cl)cc2)[C@H]1c1ccc(Cl)cc1` [4-(((2R)-2-((2S,3R,6S)-2,3-bis(4-chlorophenyl)-6-(4-(methylsulfonyl)benzyl)-5-oxo-4-morpholinyl)pentanoyl)amino)butanoic acid]: the IC50 under setting [1] was found to be 2440 nM.

With `CCC[C@H](C(=O)O)N1C(=O)[C@H](CCN2CCCCC2)O[C@@H](c2ccc(Cl)cc2)[C@H]1c1ccc(Cl)cc1` [(2R)-2-((2S,3R,6S)-2,3-bis(4-chlorophenyl)-5-oxo-6-(2-(1-piperidinyl)ethyl)-4-morpholinyl)pentanoic acid], the half-maximal inhibitory concentration (IC50) under setting [1] stood at 1730 nM.

Consider `CCC[C@H](C(=O)O)N1C(=O)[C@H](CCN2CCN(C)CC2)O[C@@H](c2ccc(Cl)cc2)[C@H]1c1ccc(Cl)cc1` [(2R)-2-((2S,3R,6S)-2,3-bis(4-chlorophenyl)-6-(2-(4-methyl-1-piperazinyl)ethyl)-5-oxo-4-morpholinyl)pentanoic acid], for which, under setting [1], the IC50 was found to be 790 nM.

As for `CCC[C@H](C(=O)O)N1C(=O)[C@H](CCN2CCOCC2)O[C@@H](c2ccc(Cl)cc2)[C@H]1c1ccc(Cl)cc1` [(2R)-2-((2S,3R,6S)-2,3-bis(4-chlorophenyl)-6-(2-(4-morpholinyl)ethyl)-5-oxo-4-morpholinyl)pentanoic acid], the concentration for half-maximal inhibition (IC50) under setting [1] was determined as 1490 nM.

As for `CCC[C@H](C(=O)O)N1C(=O)[C@H](Cc2ccccc2OC)O[C@@H](c2ccc(Cl)cc2)[C@H]1c1ccc(Cl)cc1` [(2R)-2-((2S,3R,6S)-2,3-bis(4-chlorophenyl)-6-(2-methoxybenzyl)-5-oxo-4-morpholinyl)pentanoic acid], under setting [1], the IC50 was 496 nM.

On to `CCC[C@H](C(=O)O)N1C(=O)[C@H](CCCn2ccnc2)O[C@@H](c2ccc(Cl)cc2)[C@H]1c1ccc(Cl)cc1` [(2R)-2-((2S,3R,6S)-2,3-bis(4-chlorophenyl)-6-(3-(1H-imidazol-1-yl)propyl)-5-oxo-4-morpholinyl)pentanoic acid], for which, under setting [1], the 50% inhibitory concentration (IC50) is 973 nM.

For `CCC[C@H](C(=O)O)N1C(=O)[C@H](CCCO)O[C@@H](c2ccc(Cl)cc2)[C@H]1c1ccc(Cl)cc1` [(2R)-2-((2S,3R,6S)-2,3-bis(4-chlorophenyl)-6-(3-hydroxypropyl)-5-oxo-4-morpholinyl)pentanoic acid], the IC50 under setting [1] amounted to 3010 nM.

Consider `CCC[C@H](C(=O)O)N1C(=O)[C@H](Cc2cccc(OC)c2)O[C@@H](c2ccc(Cl)cc2)[C@H]1c1ccc(Cl)cc1` [(2R)-2-((2S,3R,6S)-2,3-bis(4-chlorophenyl)-6-(3-methoxybenzyl)-5-oxo-4-morpholinyl)pentanoic acid], for which the half-maximal inhibitory concentration (IC50) under setting [1] is 1110 nM.

`CCC[C@H](CC(=O)O)N1C(=O)[C@@H](Cc2ccc(F)cc2)O[C@H](c2cccc(Cl)c2)[C@@H]1c1ccc(Cl)cc1` [(3R)-3-((2R,3S,6R)-2-(3-chlorophenyl)-3-(4-chlorophenyl)-6-(4-fluorobenzyl)-5-oxo-4-morpholinyl)hexanoic acid]: under setting [1], the half-maximal inhibitory concentration (IC50) worked out at 1150 nM.

In the case of `CCC[C@H](CC(=O)O)N1C(=O)[C@H](Cc2ccc(F)cc2)O[C@@H](c2cccc(Cl)c2)[C@H]1c1ccc(Cl)cc1` [(3R)-3-((2S,3R,6S)-2-(3-chlorophenyl)-3-(4-chlorophenyl)-6-(4-fluorobenzyl)-5-oxo-4-morpholinyl)hexanoic acid], the 50% inhibitory concentration (IC50) under setting [1] was determined as 3660 nM.

With `CCC[C@H](CCC(=O)O)N1C(=O)CO[C@H](c2ccc(Cl)cc2)[C@@H]1c1ccc(Cl)cc1` [(4R)-4-((2R,3S)-2,3-bis(4-chlorophenyl)-5-oxo-4-morpholinyl)heptanoic acid], under setting [1], the 50% inhibitory concentration (IC50) came out at 4140 nM.

Consider `CCC[C@H](CCC(=O)O)N1C(=O)CO[C@@H](c2ccc(Cl)cc2)[C@H]1c1ccc(Cl)cc1` [(4R)-4-((2S,3R)-2,3-bis(4-chlorophenyl)-5-oxo-4-morpholinyl)heptanoic acid], for which the half-maximal inhibitory concentration (IC50) under setting [1] is 24700 nM.

Turning to `O=C1CO[C@@H](c2ccc(Cl)cc2)[C@@H](c2ccc(Cl)cc2)N1c1cc(Cl)nc(Cl)c1` [(5R,6S)-5,6-bis(4-chlorophenyl)-4-(2,6-dichloro-4-pyridinyl)-3-morpholinone], the IC50 under setting [1] was 63000 nM.

With `O=C1CO[C@@H](c2ccc(Cl)cc2)[C@@H](c2ccc(Cl)cc2)N1c1ccnc(Cl)c1` [(5R,6S)-5,6-bis(4-chlorophenyl)-4-(2-chloro-4-pyridinyl)-3-morpholinone], the 50% inhibitory concentration (IC50) under setting [1] was found to be 7180 nM.

With `O=C1CO[C@@H](c2ccc(Cl)cc2)[C@@H](c2ccc(Cl)cc2)N1c1cnccn1` [(5R,6S)-5,6-bis(4-chlorophenyl)-4-(2-pyrazinyl)-3-morpholinone], the IC50 under setting [1] is 9300 nM.

As to `CCC[C@H](C(=O)O)N1C(=O)[C@H](Cc2ccccc2)O[C@@H](c2ccc(Cl)cc2)[C@H]1c1ccc(Cl)cc1` [Example 44, (R)-2-((2S,5R,6S)-2-Benzyl-5,6-bis(4-chlorophenyl)-3-oxomorpholino)pentanoic acid], the half-inhibitory concentration (IC50) under setting [1] amounted to 757 nM.

In the case of `CCC[C@H](C(=O)O)N1C(=O)[C@H](Cc2ccc(F)cc2C#N)O[C@@H](c2ccc(Cl)cc2)[C@H]1c1ccc(Cl)cc1` [Example 45, (R)-2-((2S,3R,6S)-2,3-Bis(4-chlorophenyl)-6-(2-cyano-4-fluorobenzyl)-5-oxomorpholino)pentanoic acid], the IC50 under setting [1] was found to be 466 nM.

With `CCC[C@H](C(=O)O)N1C(=O)[C@H](Cc2ccccc2C#N)O[C@@H](c2ccc(Cl)cc2)[C@H]1c1ccc(Cl)cc1` [Example 46, (R)-2-((2S,3R,6S)-2,3-Bis(4-chlorophenyl)-6-(2-cyanobenzyl)-5-oxomorpholino)pentanoic acid], the concentration for half-maximal inhibition (IC50) under setting [1] came to 259 nM.

Regarding `CCC[C@H](C(=O)O)N1C(=O)[C@H](Cc2ccccc2F)O[C@@H](c2ccc(Cl)cc2)[C@H]1c1ccc(Cl)cc1` [Example 47, (R)-2-((2S,3R,6S)-2,3-Bis(4-chlorophenyl)-6-(2-fluorobenzyl)-5-oxomorpholino)pentanoic acid], the half-inhibitory concentration (IC50) under setting [1] came to 400 nM.

As to `CCC[C@H](C(=O)O)N1C(=O)[C@H](Cc2cccc(F)c2)O[C@@H](c2ccc(Cl)cc2)[C@H]1c1ccc(Cl)cc1` [Example 48, (R)-2-((2S,3R,6S)-2,3-Bis(4-chlorophenyl)-6-(3-fluorobenzyl)-5-oxomorpholino)pentanoic acid], the IC50 under setting [1] worked out at 420 nM.

With `CCC[C@H](C(=O)O)N1C(=O)[C@H](Cc2cccc(C#N)c2)O[C@@H](c2ccc(Cl)cc2)[C@H]1c1ccc(Cl)cc1` [Example 49, (R)-2-((2S,3R,6S)-2,3-Bis(4-chlorophenyl)-6-(3-cyanobenzyl)-5-oxomorpholino)pentanoic acid], under setting [1], the half-inhibitory concentration (IC50) came to 561 nM.

Regarding `CCC[C@H](C(=O)O)N1C(=O)[C@H](Cc2cccc(S(C)(=O)=O)c2)O[C@@H](c2ccc(Cl)cc2)[C@H]1c1ccc(Cl)cc1` [Example 50, (R)-2-((2S,3R,6S)-2,3-Bis(4-chlorophenyl)-6-(3-(methylsulfonyl)benzyl)-5-oxomorpholino)pentanoic acid], under setting [1], the concentration for half-maximal inhibition (IC50) is 568 nM.

Consider `CCC[C@H](C(=O)O)N1C(=O)[C@H](Cc2ccccc2S(C)(=O)=O)O[C@@H](c2ccc(Cl)cc2)[C@H]1c1ccc(Cl)cc1` [Example 51, (R)-2-((2S,3R,6S)-2,3-Bis(4-chlorophenyl)-6-(2-(methylsulfonyl)benzyl)-5-oxomorpholino)pentanoic acid], for which the IC50 under setting [1] stood at 676 nM.

In the case of `CCC[C@H](C(=O)O)N1C(=O)[C@H](Cc2ccc(F)cc2S(C)(=O)=O)O[C@@H](c2ccc(Cl)cc2)[C@H]1c1ccc(Cl)cc1` [Example 52, (R)-2-((2S,3R,6S)-2,3-Bis(4-chlorophenyl)-6-(4-fluoro-2-(methylsulfonyl)benzyl)-5-oxomorpholino)pentanoic acid], under setting [1], the IC50 came out at 279 nM.

For `CCC[C@H](C(=O)O)N1C(=O)[C@H](Cc2ccc(S(C)(=O)=O)c(F)c2)O[C@@H](c2ccc(Cl)cc2)[C@H]1c1ccc(Cl)cc1` [Example 53, (R)-2-((2S,3R,6S)-2,3-Bis(4-chlorophenyl)-6-(3-fluoro-4-(methylsulfonyl)benzyl)-5-oxomorpholino)pentanoic acid], the IC50 under setting [1] is 276 nM.
